{"source": "paper PMC12096666", "about": "“Synthesis, in vitro and in silico studies of a novel chrysin-ferrocene Schiff base with potent anticancer activity via G1 arrest, caspase-dependent apoptosis and inhibition of topoisomerase II” (Journal of Enzyme Inhibition and Medicinal Chemistry, 2025)", "key": {"human topoisomerase II": {"molecular_target": "human topoisomerase II", "test": "Human topoisomerase II relaxation assay (pBR322)", "type": "biochemical", "conditions": "relaxation of supercoiled pBR322 DNA; mean ± SD of three experiments", "method": "(§1) CDK2 kinase assay was performed using the CDK2 kinase assay kit (BPS Bioscience, USA) as previously described. The EGFR kinase assay was performed in 96-well plates coated with PGT (poly l-glutamic acid l-tyrosine, Sigma Aldrich, USA) using the EGFR kinase assay kit (BPS Bioscience, USA) and was conducted as previously described. The VEGFR-2 kinase assay was carried out in 96-well streptavidin coated plate using recombinant human VEGFR-2/KDR ELISA kit as previously described. The tropomyosin receptor kinases (TRK) inhibition assay was performed using TrkA assay kit (BPS Bioscience, USA) as per the manufacturer’s instructions. Topoisomerase II assay was performed using the human topoisomerase II relaxation assay kit (Inspiralis, UK) which involved relaxing supercoiled pBR322 DNA substrate by the enzyme. The relaxation assay was conducted as per the manufacturer’s instructions and as previously reported.\nThe potential inhibition of topoisomerase II by CFSB was evaluated using human topoisomerase II assay. This assay involves measuring the ability of topoisomerase II enzyme to relax supercoiled DNA (pBR322)[68]."}, "TrkA": {"molecular_target": "T1, TrkA (Homo sapiens, UniProt P04629)", "T1 construct": "purchased BPS Bioscience", "T1 sequence (P04629 33-796)": "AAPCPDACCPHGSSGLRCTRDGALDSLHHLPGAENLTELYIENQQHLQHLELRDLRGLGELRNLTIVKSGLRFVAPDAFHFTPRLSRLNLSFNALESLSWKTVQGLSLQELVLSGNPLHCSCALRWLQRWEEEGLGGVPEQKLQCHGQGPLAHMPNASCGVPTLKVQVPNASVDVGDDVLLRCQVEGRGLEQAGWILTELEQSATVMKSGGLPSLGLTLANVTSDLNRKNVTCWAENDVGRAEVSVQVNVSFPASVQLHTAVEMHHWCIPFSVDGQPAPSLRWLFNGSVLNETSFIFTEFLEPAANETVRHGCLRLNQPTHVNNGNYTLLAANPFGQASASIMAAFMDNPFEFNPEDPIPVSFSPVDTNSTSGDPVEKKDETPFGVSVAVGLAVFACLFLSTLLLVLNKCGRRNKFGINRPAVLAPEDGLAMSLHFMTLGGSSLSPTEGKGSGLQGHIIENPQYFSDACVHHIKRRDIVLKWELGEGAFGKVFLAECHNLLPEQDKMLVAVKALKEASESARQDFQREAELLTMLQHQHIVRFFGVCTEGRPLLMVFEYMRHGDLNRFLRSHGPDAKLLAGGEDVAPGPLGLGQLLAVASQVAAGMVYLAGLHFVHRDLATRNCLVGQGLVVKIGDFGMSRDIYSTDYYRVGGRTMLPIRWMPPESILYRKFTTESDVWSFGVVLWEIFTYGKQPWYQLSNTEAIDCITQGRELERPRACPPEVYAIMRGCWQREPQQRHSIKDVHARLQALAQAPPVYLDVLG", "test": "TrkA inhibition assay", "type": "biochemical", "conditions": "mean ± SD of three experiments", "method": "as §1"}, "VEGFR": {"molecular_target": "T2, VEGFR (Homo sapiens, UniProt P35968)", "T2 construct": "purchased", "T2 sequence (P35968 20-1356)": "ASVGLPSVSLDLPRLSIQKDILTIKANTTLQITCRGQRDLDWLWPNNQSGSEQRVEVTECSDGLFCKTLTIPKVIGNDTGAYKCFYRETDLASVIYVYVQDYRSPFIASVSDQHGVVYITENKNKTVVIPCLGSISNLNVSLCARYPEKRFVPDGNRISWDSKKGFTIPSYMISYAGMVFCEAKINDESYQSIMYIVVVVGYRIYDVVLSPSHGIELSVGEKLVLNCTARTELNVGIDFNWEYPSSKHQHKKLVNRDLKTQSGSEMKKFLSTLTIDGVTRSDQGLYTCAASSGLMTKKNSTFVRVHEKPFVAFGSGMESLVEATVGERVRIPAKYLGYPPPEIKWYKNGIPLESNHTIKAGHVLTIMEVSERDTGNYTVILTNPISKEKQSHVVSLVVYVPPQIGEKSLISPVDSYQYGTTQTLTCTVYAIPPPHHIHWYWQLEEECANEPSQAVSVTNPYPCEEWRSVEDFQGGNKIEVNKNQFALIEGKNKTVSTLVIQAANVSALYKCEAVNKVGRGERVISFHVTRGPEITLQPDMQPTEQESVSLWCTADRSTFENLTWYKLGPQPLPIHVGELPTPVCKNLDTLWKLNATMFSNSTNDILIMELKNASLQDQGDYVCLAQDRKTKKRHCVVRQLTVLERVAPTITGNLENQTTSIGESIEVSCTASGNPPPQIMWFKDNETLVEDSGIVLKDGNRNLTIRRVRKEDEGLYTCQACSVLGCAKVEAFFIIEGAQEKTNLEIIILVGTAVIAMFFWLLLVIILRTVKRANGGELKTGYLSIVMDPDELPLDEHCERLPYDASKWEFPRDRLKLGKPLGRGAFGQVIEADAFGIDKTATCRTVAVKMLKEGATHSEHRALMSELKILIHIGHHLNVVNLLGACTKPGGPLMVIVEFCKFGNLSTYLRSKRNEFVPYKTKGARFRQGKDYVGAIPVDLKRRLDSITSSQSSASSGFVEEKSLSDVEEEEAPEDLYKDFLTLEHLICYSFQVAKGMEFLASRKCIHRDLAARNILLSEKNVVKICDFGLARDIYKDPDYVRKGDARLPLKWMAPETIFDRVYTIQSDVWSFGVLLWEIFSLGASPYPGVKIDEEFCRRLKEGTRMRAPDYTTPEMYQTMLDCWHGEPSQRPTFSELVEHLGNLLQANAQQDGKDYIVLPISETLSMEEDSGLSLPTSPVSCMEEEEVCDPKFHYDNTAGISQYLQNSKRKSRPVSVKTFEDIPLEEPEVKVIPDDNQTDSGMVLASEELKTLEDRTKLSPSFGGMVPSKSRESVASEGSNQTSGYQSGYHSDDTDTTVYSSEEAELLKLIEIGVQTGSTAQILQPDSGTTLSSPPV", "test": "VEGFR-2 kinase assay", "type": "biochemical", "conditions": "mean ± SD of three experiments", "method": "as §1"}, "tubulin": {"molecular_target": "T3, tubulin (Sus scrofa, UniProt P02550+P02554)", "T3 construct": "polymerisation of tubulin, isolated from porcine brain tissue; purchased Cytoskeleton, Inc; host or cells: porcine brain tissue", "T3 sequence (P02554 whole entry)": "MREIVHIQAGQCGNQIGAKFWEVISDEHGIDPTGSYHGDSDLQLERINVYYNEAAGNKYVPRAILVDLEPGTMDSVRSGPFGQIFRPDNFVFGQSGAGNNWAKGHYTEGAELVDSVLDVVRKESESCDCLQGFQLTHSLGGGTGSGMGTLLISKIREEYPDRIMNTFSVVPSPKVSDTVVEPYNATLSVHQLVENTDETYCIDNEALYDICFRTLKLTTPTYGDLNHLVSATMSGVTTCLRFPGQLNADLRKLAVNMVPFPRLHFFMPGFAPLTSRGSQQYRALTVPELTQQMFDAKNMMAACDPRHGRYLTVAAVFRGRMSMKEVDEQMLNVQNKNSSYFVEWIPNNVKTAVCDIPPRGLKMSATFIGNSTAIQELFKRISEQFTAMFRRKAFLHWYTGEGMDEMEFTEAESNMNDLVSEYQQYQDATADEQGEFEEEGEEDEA", "T3 sequence (P02550 whole entry)": "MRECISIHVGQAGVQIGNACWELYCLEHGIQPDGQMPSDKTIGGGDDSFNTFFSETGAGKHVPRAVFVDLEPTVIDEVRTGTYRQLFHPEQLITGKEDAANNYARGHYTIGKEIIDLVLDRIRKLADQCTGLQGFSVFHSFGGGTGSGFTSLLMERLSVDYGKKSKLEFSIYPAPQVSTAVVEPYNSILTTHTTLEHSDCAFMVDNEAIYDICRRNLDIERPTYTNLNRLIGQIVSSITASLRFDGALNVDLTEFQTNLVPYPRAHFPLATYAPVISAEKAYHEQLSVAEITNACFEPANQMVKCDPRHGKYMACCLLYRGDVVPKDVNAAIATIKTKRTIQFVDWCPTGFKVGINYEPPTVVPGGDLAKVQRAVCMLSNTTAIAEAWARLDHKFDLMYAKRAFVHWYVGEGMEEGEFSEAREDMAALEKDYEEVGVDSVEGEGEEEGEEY", "test": "Tubulin polymerisation assay", "type": "biochemical", "conditions": "fluorescence, tubulin from porcine brain; mean ± SD of three experiments", "method": "The assay was performed using the tubulin polymerisation assay kit (Cytoskeleton, Inc, USA) as per the manufacturer’s instructions and as previously reported. […] Polymerisation dose-response curves were obtained by measuring changes in fluorescence intensity at each compound concentration. Fluorescence was measured at an excitation of 360 nm and emission of 450 nm using a Tecan-spark reader.\nA tubulin polymerisation assay was used in order to assess the potential of CFSB as a tubulin polymerisation inhibitor. The assay involved observing the polymerisation of tubulin, isolated from porcine brain tissue, in the presence of CFSB. Changes in polymerisation were monitored via changes in fluorescence intensity."}, "CDK2": {"molecular_target": "T4, CDK2 (Homo sapiens, UniProt P24941)", "T4 construct": "purchased BPS Bioscience", "test": "CDK2 kinase assay", "type": "biochemical", "conditions": "mean ± SD of three experiments", "method": "as §1"}, "EGFR": {"molecular_target": "T5, EGFR (Homo sapiens, UniProt P00533)", "T5 construct": "purchased BPS Bioscience", "T5 sequence (P00533 25-1210)": "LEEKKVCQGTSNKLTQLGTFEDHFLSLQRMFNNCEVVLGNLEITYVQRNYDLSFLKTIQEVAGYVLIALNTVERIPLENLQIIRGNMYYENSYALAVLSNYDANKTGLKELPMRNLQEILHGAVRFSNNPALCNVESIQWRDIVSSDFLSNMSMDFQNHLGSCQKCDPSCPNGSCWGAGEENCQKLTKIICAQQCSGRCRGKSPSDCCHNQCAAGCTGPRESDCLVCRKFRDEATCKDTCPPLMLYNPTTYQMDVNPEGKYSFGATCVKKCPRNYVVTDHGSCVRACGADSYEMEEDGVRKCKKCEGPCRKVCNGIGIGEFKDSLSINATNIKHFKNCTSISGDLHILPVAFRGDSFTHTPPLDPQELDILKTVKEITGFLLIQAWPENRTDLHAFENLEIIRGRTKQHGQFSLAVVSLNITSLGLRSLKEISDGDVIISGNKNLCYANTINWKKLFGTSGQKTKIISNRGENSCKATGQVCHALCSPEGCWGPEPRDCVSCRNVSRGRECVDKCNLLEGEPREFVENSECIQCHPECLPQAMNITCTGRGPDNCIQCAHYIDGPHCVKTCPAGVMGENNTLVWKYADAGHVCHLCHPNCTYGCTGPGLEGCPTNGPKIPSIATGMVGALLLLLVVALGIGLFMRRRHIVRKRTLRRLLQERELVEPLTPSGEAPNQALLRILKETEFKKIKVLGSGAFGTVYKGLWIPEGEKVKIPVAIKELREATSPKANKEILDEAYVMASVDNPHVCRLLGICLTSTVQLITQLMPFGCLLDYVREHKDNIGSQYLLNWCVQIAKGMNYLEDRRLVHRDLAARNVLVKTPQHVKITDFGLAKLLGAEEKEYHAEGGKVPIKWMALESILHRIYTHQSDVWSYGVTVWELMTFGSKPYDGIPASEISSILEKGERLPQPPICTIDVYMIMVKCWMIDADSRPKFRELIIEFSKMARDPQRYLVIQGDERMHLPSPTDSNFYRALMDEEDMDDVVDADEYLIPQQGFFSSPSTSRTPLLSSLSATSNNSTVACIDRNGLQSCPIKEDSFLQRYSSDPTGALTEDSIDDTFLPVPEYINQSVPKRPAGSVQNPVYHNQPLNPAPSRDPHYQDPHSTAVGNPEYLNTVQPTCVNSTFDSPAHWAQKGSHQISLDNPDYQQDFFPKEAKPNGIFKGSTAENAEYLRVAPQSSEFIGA", "test": "EGFR kinase assay", "type": "biochemical", "conditions": "mean ± SD of three experiments", "method": "as §1"}, "MDA-MB-231": {"system": "MDA-MB-231", "conditions": "triple negative breast cancer cell line; values as low as; cited from earlier work"}, "HCT116 cells": {"system": "HCT116 cells", "test": "MTT cell viability assay, HCT116", "type": "cell-based", "conditions": "Homo sapiens, HCT-116, 72 h, mean ± SD of three experiments", "method": "(§2) Liver cancer (HepG2), colon cancer (HCT116), lung cancer (A549), breast cancer (MCF7) and normal lung (MRC5) cells were obtained from ATCC (Rockville, USA). Cells were cultured in RPMI-1640 enriched with 10% foetal calf serum and 50 µg/ml gentamycin. They were incubated at 37 °C in a humidified environment containing 5% CO2 and passaged 2–3 times/week.\n(§3) The MTT assay was conducted as previously reported. Cell lines were seeded at 5x10^4 cells/well and incubated for 24 h. CFSB was added in twelve concentrations, alongside vehicle controls and vinblastine sulphate as a positive control. After 72 h of incubation, cell viability was assessed using the MTT assay. Media was replaced, followed by the addition of MTT solution. DMSO was later added and optical density was measured at 590 nm using a microplate reader (TECAN, USA). IC50 values were calculated using Graphpad Prism (San Diego, USA). The experiment was repeated three times."}, "MCF7 cells": {"system": "MCF7 cells", "test": "MTT cell viability assay, MCF7", "type": "cell-based", "conditions": "Homo sapiens, 72 h, mean ± SD of three experiments", "method": "as §2, §3"}, "HepG2 cells": {"system": "HepG2 cells", "test": "MTT cell viability assay, HepG2", "type": "cell-based", "conditions": "Homo sapiens, 72 h, mean ± SD of three experiments", "method": "as §2, §3"}, "A549 cells": {"system": "A549 cells", "test": "MTT cell viability assay, A549", "type": "cell-based", "conditions": "Homo sapiens, 72 h, mean ± SD of three experiments", "procedure": "The MTT assay was conducted as previously reported[20]. Cell lines were seeded at 5x10^4 cells/well and incubated for 24 h. […] After 72 h of incubation, cell viability was assessed using the MTT assay. Media was replaced, followed by the addition of MTT solution. DMSO was later added and optical density was measured at 590 nm using a microplate reader (TECAN, USA). IC50 values were calculated using Graphpad Prism (San Diego, USA). The experiment was repeated three times."}}, "note": "Where “and” joins values, the source holds several entries; their conditions need not be identical. Equal entries are not always repeated.", "data": [{"smiles": "Oc1cc(O)c2c(=N[C]34[CH]5[CH]6[CH]7[CH]3[Fe]6754389%10[CH]4[CH]3[CH]8[CH]9[CH]4%10)cc(-c3ccccc3)oc2c1", "note": "(stereo not drawn) [CFSB, cyclopenta-2,4-dien-1-yl(5-((5,7-dihydroxy-2-phenyl-4H-chromen-4-ylidene)amino)cyclopenta-2,4-dien-1-yl)iron]", "values": [{"measurement": "IC50", "setting": "human topoisomerase II", "value": "20 µM and 20.1 µM"}, {"measurement": "IC50", "setting": "TrkA", "value": "> 100", "unit": "µM"}, {"measurement": "IC50", "setting": "VEGFR", "value": "> 100", "unit": "µM"}, {"measurement": "IC50", "setting": "tubulin", "value": "76 µM and 76.4 µM"}, {"measurement": "IC50", "setting": "CDK2", "value": "> 100", "unit": "µM"}, {"measurement": "IC50", "setting": "EGFR", "value": "> 100", "unit": "µM"}]}, {"smiles": "O=C(COc1cc(O)c2c(=O)cc(-c3ccccc3)oc2c1)N/N=C/c1ccc(O)cc1O", "note": "[Chrysin-De-allyl-Pac-1]", "values": [{"measurement": "IC50", "setting": "MDA-MB-231", "value": "≥ 5.98", "unit": "µM"}]}, {"smiles": "COc1cccc2c1C(=O)c1c(O)c3c(c(O)c1C2=O)C[C@@](O)(C(=O)CO)C[C@@H]3O[C@H]1C[C@H](N)[C@H](O)[C@H](C)O1", "note": "[Doxorubicin]", "values": [{"measurement": "IC50", "setting": "HCT116 cells", "value": "3.16 ± 0.38", "unit": "µM"}]}, {"smiles": "CC[C@]1(O)C[C@@H]2CN(CCc3c([nH]c4ccccc34)[C@@](C(=O)OC)(c3cc4c(cc3OC)N(C)[C@H]3[C@@](O)(C(=O)OC)[C@H](OC(C)=O)[C@]5(CC)C=CCN6CC[C@]43[C@@H]65)C2)C1", "note": "[Vinblastine sulphate]", "values": [{"measurement": "IC50", "setting": "HCT116 cells", "value": "1.75 ± 0.19", "unit": "µM"}, {"measurement": "IC50", "setting": "MCF7 cells", "value": "2.27 ± 0.25", "unit": "µM"}, {"measurement": "IC50", "setting": "HepG2 cells", "value": "0.89 ± 0.1", "unit": "µM"}, {"measurement": "IC50", "setting": "A549 cells", "value": "4.15 ± 0.31", "unit": "µM"}]}]}
